Results as given in patent publication US7385051B2, “Fluorescent N2,N3-etheno-purine (2′-deoxy) riboside derivatives and uses thereof” (Bar-llan University, priority 2005, dated 2008).
Several values for one entry are separate records, joined by “and”; a condition that tells them apart may be missing. Identical values can stand only once. Entries after “also recorded” stand apart in the source; their conditions may differ. Values belong to the molecule of their own block, whether it stands above or below them.

What was measured:
[1] = pKa determination by pH-titration monitored by fluorescence spectroscopy; type: physicochemical
Text: H-bonding pattern of N^2,N3-ε-A is dependent not only on tautomeric equilibria, but also on acid-base equilibria, namely, on protonation states. For analyzing the protonation state of N^2,N3-ε-A at physiological pH, we determined the pKa values of this system.
Specifically, we monitored the pH-titration of N^2,N3-E-A, 4, by fluorescence spectroscopy. 1×10^−5 M solutions of N^2,N3-ε-A-5′-mono-phosphate were titrated by HCl in the pH range of 1.5-7.0.

[2] = Fluorescence life-time; type: physicochemical
Procedure: Fluorescent emission is a random process, and the excited molecules emit photons within a certain time, usually of the order of ns. For N^2,N3-ε-A, 4, and N^2,N3-ε-2′-deoxy-A, 23, fluorescence life times of 2.26 and 2.1 ns, respectively, were measured. These life times are relatively long and are therefore more convenient for the fluorescence measurements.

[3] = Absorption spectra (UV-Visible) in aqueous solution at several pH values; type: physicochemical; set-up: Absorption λmax: unit not given here; details: for Absorption λmax: 4.85 × 10^−5 M
Procedure: Absorption spectra of compounds 4 and 23 were measured using a Varian array-1E UV-Visible spectrometer. Spectra were determined in dilute HCl or NaOH solutions in the pH range of 1.6-12.3 or at pH 7.0. The concentration of the samples of 4 in aqueous solutions and in organic solvents was of the order of 4.85×10^−5 M and of 23 in aqueous solutions was of the order of 5.04×10^−5 M.

[4] = Emission (fluorescence) spectra and quantum yield, quinine sulfate as reference; type: physicochemical; set-up: Emission λmax: unit not given here
Procedure: Emission spectra of compounds 4 and 23 were measured using an Aminco-Bowman series 2 Luminescence Spectrometer. Measurement conditions included: 740-750 V sensitivity, and a 4 or 2 nm slit in the emission spectra for aqueous or organic solutions, respectively. Emission spectra were corrected by the subtraction of the medium's emission spectrum. Spectra were determined in dilute HCl or NaOH solutions in the pH range of 1.6-12.3 or at pH 7. The concentration of the samples of 4 was of the order of 4.85×10^−5 M for aqueous and organic solutions and of 23 in the order of 5.04×10^−5 M for aqueous solutions. All organic solvents were freshly distilled prior to emission measurements. Measurements of the emission of the nucleoside analogue were conducted with subtraction of the solvent's emission. The quantum yield of each compound was calculated from the observed absorbance at 290 nm and the area of the fluorescence emission band. Quinine sulfate was used as reference compound assuming a quantum yield value of 0.55 (Andrew et al., 1988).

[5] = Stability under automated DNA synthesis conditions (TLC and MS); type: physicochemical
Procedure: In order for a compound to be used in automated DNA synthesis, it has to be able to withstand the conditions of the different reactions in the synthesis. For example, it has to be stable in the treatment with 28% ammonia for two hours at 60° C.

[6] = biological target: T1, NTPDase2 (Homo sapiens, UniProt Q9Y5L3); experiment: Hydrolysis as substrates of NTPDase2; type: biochemical; details: substrate at 200 μM
T1 sequence (Q9Y5L3 1-495): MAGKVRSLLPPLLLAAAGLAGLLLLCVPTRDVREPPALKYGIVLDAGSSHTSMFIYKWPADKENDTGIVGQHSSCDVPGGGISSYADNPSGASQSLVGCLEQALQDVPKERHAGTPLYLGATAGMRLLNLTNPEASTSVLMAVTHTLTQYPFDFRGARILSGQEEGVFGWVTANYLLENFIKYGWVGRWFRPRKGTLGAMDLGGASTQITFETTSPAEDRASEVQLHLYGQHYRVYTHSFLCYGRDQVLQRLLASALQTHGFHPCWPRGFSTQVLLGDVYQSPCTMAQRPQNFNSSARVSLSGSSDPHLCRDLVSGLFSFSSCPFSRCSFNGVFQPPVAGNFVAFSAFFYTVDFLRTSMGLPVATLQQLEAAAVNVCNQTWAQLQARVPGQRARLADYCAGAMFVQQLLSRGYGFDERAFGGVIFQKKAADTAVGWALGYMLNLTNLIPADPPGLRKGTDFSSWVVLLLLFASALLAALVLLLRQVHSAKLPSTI
Procedure: (§1) For evaluation of the probes as substrates/inhibitors of NTPDase1 and 2, the analogues 30a-f were evaluated as either substrates or inhibitors of NTPDase1 and 2. We tested ATP and analogues 30 as substrates of NTPDases 1 and 2 at 100 μM for NTPDase1 and 200 μM for NTPDase2. All analogues were hydrolysed by NTPDases 1 and 2. NTPDase2 hydrolysed analogues 30 better than NTPDase1. When compared to ATP, the rate of hydrolysis of all analogues was lower for NTPDase1 and mostly similar for NTPDase2 (FIGS. 7A-7B).

[7] = biological target: T2, rat brain P2Y1-receptor (Rattus norvegicus, UniProt P49651); experiment: Agonist-induced Ca2+ release in HEK 293 cells stably transfected with P2Y1-receptor; type: cell-based; details: HEK 293 cells with rat brain P2Y1-receptor
T2 construct: expressed in transfected cells
Text: To examine the efficacy of analogues 30a,d in a functional assay, we tested them by the agonist-induced Ca^2+ release in HEK 293 cells stably transfected with rat brain P2Y1-receptor (FIG. 6) (Voehringer et al., 2000). […] However, a benzyl substitution at N^6 of 30a, as in analogue 30d, reduced the ligand's potency. […] EC50 value in the range of 10^−6 M.

[8] = biological target: T1, NTPDase2; experiment: Fluorescence spectra of the nucleotide with and without NTPDase2; type: biochemical; set-up: made in house; host or cells: COS-7 cells (transfected; lysate used as enzyme); details: 200 μM nucleotide, excitation at 290 nm
Text: Next, we tested whether N^2,N3-ε-A is suitable for probing ectonucleotidases. […] For this purpose, we measured the fluorescence spectra of 30a and its monophosphate homologue with and without human NTPDase2. We observed that the fluorescence intensity of the nucleotide decreased by ca. ⅓ upon the addition of the enzyme (not shown). This observation is consistent with the lower dielectric constant (polarity) of the protein as compared to that of the aqueous solution. Fluorescence intensity of the bound nucleotide, although lowered, still enables the application of this nucleotide as a fluorescent probe.
For the fluorescence studies of 30a-NTPDase2 complex, emission spectra of 30a and its monophosphate homologue, 30a′, were measured in the presence of human NTPDase2 using an Aminco-Bowman series 2 Luminescence Spectrometer. Measurement conditions included: 740-780 V sensitivity, 37° C. and excitation at 290 nm. The concentration of the samples was of the order of 2×10^−4 M in the NTPDase incubation mixture. Measurements of the emission spectra were performed in 1.5 ml of 200 μM 30a and 30a′, without enzyme. Enzyme was added (3.6 μg of transfected COS-7 cells lysate), then, emission spectra were measured at 5 min intervals. […]

[9] = biological target: T3, NTPDase1 (Homo sapiens, UniProt P49961); experiment: Hydrolysis as substrates of NTPDase1; type: biochemical; details: substrate at 100 μM
T3 sequence (P49961 1-510): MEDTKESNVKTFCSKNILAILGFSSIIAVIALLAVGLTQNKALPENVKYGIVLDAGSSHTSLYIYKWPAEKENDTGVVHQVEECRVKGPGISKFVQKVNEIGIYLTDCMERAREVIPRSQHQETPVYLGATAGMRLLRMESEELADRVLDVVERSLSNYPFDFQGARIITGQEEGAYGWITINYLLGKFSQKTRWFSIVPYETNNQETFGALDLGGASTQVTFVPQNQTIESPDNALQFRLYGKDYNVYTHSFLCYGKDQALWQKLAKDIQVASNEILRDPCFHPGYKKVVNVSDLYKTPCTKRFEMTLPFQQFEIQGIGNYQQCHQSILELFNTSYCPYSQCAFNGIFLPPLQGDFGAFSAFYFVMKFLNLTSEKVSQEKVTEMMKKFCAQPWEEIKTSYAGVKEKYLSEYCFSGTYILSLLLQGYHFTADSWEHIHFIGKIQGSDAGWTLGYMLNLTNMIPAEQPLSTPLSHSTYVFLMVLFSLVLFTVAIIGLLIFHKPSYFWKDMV
Procedure: as §1

[10] = 1×10^−5 M solutions of the 5′-mono-phosphate titrated by HCl, pH 1.5-7.0, listed as N^2,N3-ε-A
[11] = in DMF (εd 37.6), 4.85 × 10^−5 M
[12] = in DMSO (εd 47.6), 4.85 × 10^−5 M
[13] = in Dioxane (εd 2.2), 4.85 × 10^−5 M
[14] = in water, excitation at 290 nm (4), 330 nm (17)

T2 sequence (P49651 whole entry): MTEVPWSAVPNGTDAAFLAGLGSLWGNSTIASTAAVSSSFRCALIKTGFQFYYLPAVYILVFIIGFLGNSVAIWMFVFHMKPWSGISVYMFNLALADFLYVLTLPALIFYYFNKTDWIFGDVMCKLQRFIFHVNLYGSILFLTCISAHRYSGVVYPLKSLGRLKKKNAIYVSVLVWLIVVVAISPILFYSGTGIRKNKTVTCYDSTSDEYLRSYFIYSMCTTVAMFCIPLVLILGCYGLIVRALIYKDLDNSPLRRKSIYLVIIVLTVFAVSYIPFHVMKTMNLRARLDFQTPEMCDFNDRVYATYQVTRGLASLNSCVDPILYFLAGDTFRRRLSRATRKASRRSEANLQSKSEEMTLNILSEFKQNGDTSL

- pKa (first; assigned to the exocyclic amine) [1, 10]: 1.92
- pKa (second; attributed to N8) [1, 10]: 3.16
- pKa (third; N7, most basic nitrogen) [1, 10]: 6.09
- pKa (first; assigned to the exocyclic amine) ([1]; pH 1.5): 1.92±0.08
- pKa (second; attributed to N8) ([1]; pH 1.5): 3.16±0.24
- pKa (third; N7, most basic nitrogen) ([1]; pH 1.5): 6.09±0.16
- Non-protonated fraction at physiological pH ([1]; pH 7.4): 96%
- Fluorescence life time [2]: 2.26 ns
- Absorption bands in water ([3]; in water): 234 nm and 274 nm
- Absorption coefficient of the band at 234 nm ([3]; in water, 234 nm): 12.6×10^3
- Absorption coefficient of the band at 274 nm ([3]; in water, 274 nm): 3.3×10^3
- Absorption λmax ([3]; pH 1.6): 224 and 268
- εd ([3]; pH 1.6, band at λmax 224): 6.17 × 10^3
- εd ([3]; pH 1.6, band at λmax 268): 14.22 × 10^3
- Absorption λmax ([3]; pH 7.0): 234 and 274
- εd ([3]; pH 7.0, band at λmax 234): 12.58 × 10^3
- εd ([3]; pH 7.0, band at λmax 274): 3.31 × 10^3
- Absorption λmax ([3]; pH 12.3): 234 and 276
- εd ([3]; pH 12.3, band at λmax 234): 13.89 × 10^3
- εd ([3]; pH 12.3, band at λmax 276): 3.69 × 10^3
- Fluorescence at acidic pH ([4]; acidic pH): significant fluorescence
- Emission λmax [4, 11]: 448
- φ (quantum yield) [4, 11]: 0.082
- Emission λmax [4, 12]: 458
- φ (quantum yield) [4, 12]: 0.085
- Emission λmax [4, 13]: 434
- φ (quantum yield) [4, 13]: 0.042
- Maximum emission (λmax) in water [4, 14]: 420 nm
- Quantum yield (φ) in water [4, 14]: 0.03
- Emission λmax ([4]; pH 1.6, 4.85 × 10−5 M): 396
- φ (quantum yield) ([4]; pH 1.6, 4.85 × 10−5 M): 0.021
- Emission λmax ([4]; pH 7.0, 4.85 × 10−5 M): 420
- φ (quantum yield) ([4]; pH 7.0, 4.85 × 10−5 M): 0.032
- Emission λmax ([4]; pH 12.3, 4.85 × 10−5 M): 420
- φ (quantum yield) ([4]; pH 12.3, 4.85 × 10−5 M): 0.031
SMILES: Nc1nc2nccn2c2c1ncn2C1OC(CO)C(O)C1O (stereo not drawn) [Compound 4, N^2,N3-etheno-adenosine]

- Fluorescence life time [2]: 2.1 ns
- ε (238 nm) ([3]; pH 7.0, 238 nm): 4.67×10^3
- ε (308 nm) ([3]; pH 7.0, 308 nm): 1.23×10^3
- Stability against 2% dichloroacetic acid ([5]; 2% dichloroacetic acid, 2 min): stable
- Stability in 28% ammonia ([5]; 28% ammonia, two hours at 60° C.): stable
- φ290 ([4]; 290 nm, pH 7.0): 0.085
SMILES: Nc1nc2nccn2c2c1ncn2C1CC(O)C(CO)O1 (stereo not drawn) [Compound 23]

- Rate of hydrolysis by NTPDase2 compared to ATP [6]: almost equipotent to ATP
- EC50 ([7]; Ca^2+ release): ~100 nM
- Shift of maximum emission upon the addition of the enzyme ([8]; human NTPDase2, 37° C.): does not shift
SMILES: Nc1nc2nccn2c2c1ncn2C1OC(COP(=O)(O)OP(=O)(O)OP(=O)(O)O)C(O)C1O (stereo not drawn) [Compound 30a, N^2,N3-ethenoadenosine-5′-triphosphate]
- Potency at P2Y1-R compared to ATP / 30a [7]: almost equipotent with ATP; also recorded: almost equipotent to ATP
- Decrease of fluorescence intensity upon the addition of the enzyme ([8]; human NTPDase2 (3.6 μg COS-7 lysate), 37° C.): ca. ⅓; also recorded: lower fluorescence intensity

- Rate of hydrolysis by NTPDase1 compared to ATP [9]: less efficiently than ATP
SMILES: O=P(O)(O)OP(=O)(O)OP(=O)(O)OCC1OC(n2cnc3c(N(Cc4ccccc4)Cc4ccccc4)nc4nccn4c32)C(O)C1O (stereo not drawn) [Compound 30e, N^6,N^6-Dibenzyl-N^2,N3-ethenoadenosine-5′-triphosphate]
- Rate of hydrolysis by NTPDase2 compared to ATP [6]: less efficiently than ATP; also recorded: significant reduction of the affinities
